# Data reported in US11389415B2, “Methods of regulating cannabinoid receptor activity-related disorders and diseases” (The United States of America as represented by the …, priority 2012, dated 2022).
# Test: MNF accumulation in vivo in C6 glioma tumors
# Parameters: species or system mouse
# Settings: C6 xenograft tumors at completion of study
# Protocol: Evaluation of MNF accumulation in vivo in C6 glioma tumors. The accumulation of MNF in vivo in C6 tumor xenografts in athymic mice was assessed in comparison with vehicle-treated tumor-bearing animals. The frozen tumor samples were thawed, and then homogenized. The concentration of MNF and its metabolites was determined by HPLC followed by LC-MS/MS. In brief, the assays were conducted using an Eclipse XDB-C18 guard column (4.6 mm×12.5 mm) and an Atlantis HILIC column (150×2.1 mm ID, […]). The mobile phase consisted of water containing 0.1% formic acid as component A and acetonitrile as component B. A linear gradient was run as follows: 0 minutes 95% B; 5 minutes 60% B; 6 minutes 80% B; 10 minutes 95% B at a flow rate of 1.0 ml/minute. The total run time was 15 minutes per sample. Identification and quantification of the analytes was accomplished using an API-4000 LC-MS/MS in positive electrospray ionization mode and data was acquired employing multiple reaction monitoring (MRM) and the following MRM transitions: MNF (369-200); MNF-Gluc (545-200). Tumor tissues from vehicle-injected mice were used as controls.
structure (smiles),measurement,setting,value
"COc1ccc(C[C@@H](C)NC[C@H](O)c2cc(O)cc(O)c2)c2ccccc12 [(R,R′)-MNF, (R,R′)-4′-methoxy-1-naphthylfenoterol]",tissue concentration of MNF in tumor,"cohort 1, n=9",141.0±52.5 ng/ml/g tissue
same,tissue concentration of MNF in tumor,"cohort 2, n=7",214.4±65.5 ng/ml/g tissue
